tested on: SK-MEL-5; assay: Anticancer activity against human SK-MEL-5 cells assessed as cell growth at 10 uM incubated for 48 hrs by sulforhodamine B assay; type: functional; settings: read-out: Activity

| SMILES | growth at 10 µM |
| --- | --- |
| O=C1C2=C(C(=O)c3c(O)cccc31)C(c1cccs1)c1sc(=O)[nH]c1S2 (configuration not stated) | -96.9% |

tested on: SR; assay: Anticancer activity against human SR cells assessed as cell growth at 10 uM incubated for 48 hrs by sulforhodamine B assay; type: functional; settings: read-out: Activity

| SMILES | growth at 10 µM |
| --- | --- |
| O=C1C2=C(C(=O)c3c(O)cccc31)C(c1ccc(Cl)cc1)c1sc(=O)[nH]c1S2 (configuration not stated) | 38.6% |

tested on: SK-MEL-28; assay: Anticancer activity against human SK-MEL-28 cells assessed as cell growth at 10 uM incubated for 48 hrs by sulforhodamine B assay; type: functional; settings: read-out: Activity

| SMILES | growth at 10 µM |
| --- | --- |
| O=C1C2=C(C(=O)c3c(O)cccc31)C(c1cccs1)c1sc(=O)[nH]c1S2 (configuration not stated) | -97.2% |

tested on: RXF 393; assay: Anticancer activity against human RXF 393 cells assessed as cell growth at 10 uM incubated for 48 hrs by sulforhodamine B assay; type: functional; settings: read-out: Activity

| SMILES | growth at 10 µM |
| --- | --- |
| O=C1C2=C(C(=O)c3c(O)cccc31)C(c1cccs1)c1sc(=O)[nH]c1S2 (configuration not stated) | -97.4% |

tested on: Malme-3M; assay: Anticancer activity against human Malme-3M cells assessed as cell growth at 10 uM incubated for 48 hrs by sulforhodamine B assay; type: functional; settings: read-out: Activity

| SMILES | growth at 10 µM |
| --- | --- |
| O=C1C2=C(C(=O)c3c(O)cccc31)C(c1cccs1)c1sc(=O)[nH]c1S2 (configuration not stated) | -99.4% |

tested on: HCC 2998; assay: Anticancer activity against human HCC 2998 cells assessed as cell growth at 10 uM incubated for 48 hrs by sulforhodamine B assay; type: functional; settings: read-out: Activity

| SMILES | growth at 10 µM |
| --- | --- |
| O=C1C2=C(C(=O)c3c(O)cccc31)C(c1cccs1)c1sc(=O)[nH]c1S2 (configuration not stated) | -96.8% |

tested on: OVCAR-5; assay: Anticancer activity against human OVCAR-5 cells assessed as cell growth at 10 uM incubated for 48 hrs by sulforhodamine B assay; type: functional; settings: read-out: Activity

| SMILES | growth at 10 µM |
| --- | --- |
| O=C1C2=C(C(=O)c3c(O)cccc31)C(c1cccs1)c1sc(=O)[nH]c1S2 (configuration not stated) | -93% |

tested on: not listed separately; assay: Cytotoxicity against human HCT116-p53-null cells assessed as cell growth inhibition incubated for 72 hrs by MTT assay; type: functional, cell-based; settings: not given

| SMILES | IC50 |
| --- | --- |
| O=C1C2=C(C(=O)c3c(O)cccc31)C(c1ccc(Cl)cc1)c1sc(=O)[nH]c1S2 (configuration not stated) | 3.1 µM |
| O=C1C2=C(C(=O)c3c(O)cccc31)C(c1cccs1)c1sc(=O)[nH]c1S2 (configuration not stated) | 5.36 µM |

tested on: A498; assay: Anticancer activity against human A498 cells assessed as cell growth at 10 uM incubated for 48 hrs by sulforhodamine B assay; type: functional; settings: read-out: Activity

| SMILES | growth at 10 µM |
| --- | --- |
| O=C1C2=C(C(=O)c3c(O)cccc31)C(c1cccs1)c1sc(=O)[nH]c1S2 (configuration not stated) | -98.7% |

tested on: MDA-MB-435; assay: Anticancer activity against human MDA-MB-435 cells assessed as cell growth at 10 uM incubated for 48 hrs by sulforhodamine B assay; type: functional; settings: read-out: Activity

| SMILES | growth at 10 µM |
| --- | --- |
| O=C1C2=C(C(=O)c3c(O)cccc31)C(c1cccs1)c1sc(=O)[nH]c1S2 (configuration not stated) | -90.2% |

tested on: CAKI-1; assay: Anticancer activity against human CAKI-1 cells assessed as cell growth at 10 uM incubated for 48 hrs by sulforhodamine B assay; type: functional; settings: read-out: Activity

| SMILES | growth at 10 µM |
| --- | --- |
| O=C1C2=C(C(=O)c3c(O)cccc31)C(c1ccc(Cl)cc1)c1sc(=O)[nH]c1S2 (configuration not stated) | 36.7% |

tested on: not listed separately; assay: Cytotoxicity against mouse NIH3T3 cells assessed as cell growth inhibition incubated for 72 hrs by MTT assay; type: toxicity, cell-based; settings: not given

| SMILES | IC50 at 72 h |
| --- | --- |
| O=C1C2=C(C(=O)c3c(O)cccc31)C(c1ccc(Cl)cc1)c1sc(=O)[nH]c1S2 (configuration not stated) | 46.6 µM |
| O=C1C2=C(C(=O)c3c(O)cccc31)C(c1cccs1)c1sc(=O)[nH]c1S2 (configuration not stated) | 39.1 µM |

tested on: UACC-257; assay: Anticancer activity against human UACC-257 cells assessed as cell growth at 10 uM incubated for 48 hrs by sulforhodamine B assay; type: functional; settings: read-out: Activity

| SMILES | growth at 10 µM |
| --- | --- |
| O=C1C2=C(C(=O)c3c(O)cccc31)C(c1cccs1)c1sc(=O)[nH]c1S2 (configuration not stated) | -93.1% |

tested on: SN12C; assay: Anticancer activity against human SN12C cells assessed as cell growth at 10 uM incubated for 48 hrs by sulforhodamine B assay; type: functional; settings: read-out: Activity

| SMILES | growth at 10 µM |
| --- | --- |
| O=C1C2=C(C(=O)c3c(O)cccc31)C(c1cccs1)c1sc(=O)[nH]c1S2 (configuration not stated) | -92.8% |

tested on: HCT-15; assay: Anticancer activity against human HCT-15 cells assessed as cell growth at 10 uM incubated for 48 hrs by sulforhodamine B assay; type: functional; settings: read-out: Activity

| SMILES | growth at 10 µM |
| --- | --- |
| O=C1C2=C(C(=O)c3c(O)cccc31)C(c1cccs1)c1sc(=O)[nH]c1S2 (configuration not stated) | -91.4% |

tested on: KB 3-1; assay: Cytotoxicity against human KB 3-1 cells assessed as cell growth inhibition incubated for 72 hrs by MTT assay; type: functional, cell-based; settings: KB 3-1, 72 h

| SMILES | IC50 |
| --- | --- |
| O=C1C2=C(C(=O)c3c(O)cccc31)C(c1ccc(Cl)cc1)c1sc(=O)[nH]c1S2 (configuration not stated) | 3.33 µM |
| O=C1C2=C(C(=O)c3c(O)cccc31)C(c1cccs1)c1sc(=O)[nH]c1S2 (configuration not stated) | 4.53 µM |

tested on: not listed separately; assay: Cytotoxicity against mouse J774.2 cells assessed as cell growth inhibition incubated for 72 hrs by MTT assay; type: toxicity, cell-based; settings: not given

| SMILES | IC50 at 72 h |
| --- | --- |
| O=C1C2=C(C(=O)c3c(O)cccc31)C(c1ccc(Cl)cc1)c1sc(=O)[nH]c1S2 (configuration not stated) | 5.27 µM |
| O=C1C2=C(C(=O)c3c(O)cccc31)C(c1cccs1)c1sc(=O)[nH]c1S2 (configuration not stated) | 6.81 µM |

tested on: NCI-H322M; assay: Anticancer activity against human NCI-H322M cells assessed as cell growth at 10 uM incubated for 48 hrs by sulforhodamine B assay; type: functional; settings: read-out: Activity

| SMILES | growth at 10 µM |
| --- | --- |
| O=C1C2=C(C(=O)c3c(O)cccc31)C(c1cccs1)c1sc(=O)[nH]c1S2 (configuration not stated) | -96.8% |

tested on: not listed separately; assay: Cytotoxicity against human HaCaT cells assessed as cell growth inhibition incubated for 72 hrs by MTT assay; type: toxicity, cell-based; settings: HaCaT cells

| SMILES | IC50 at 72 h |
| --- | --- |
| O=C1C2=C(C(=O)c3c(O)cccc31)C(c1ccc(Cl)cc1)c1sc(=O)[nH]c1S2 (configuration not stated) | > 50 µM |

tested on: SF-295; assay: Anticancer activity against human SF-295 cells assessed as cell growth at 10 uM incubated for 48 hrs by sulforhodamine B assay; type: functional; settings: read-out: Activity

| SMILES | growth at 10 µM |
| --- | --- |
| O=C1C2=C(C(=O)c3c(O)cccc31)C(c1cccs1)c1sc(=O)[nH]c1S2 (configuration not stated) | -93.5% |

tested on: MCF7; assay: Cytotoxicity against human MCF7 cells assessed as cell growth inhibition incubated for 72 hrs by MTT assay; type: functional, cell-based; settings: MCF7, 72 h

| SMILES | IC50 |
| --- | --- |
| O=C1C2=C(C(=O)c3c(O)cccc31)C(c1ccc(Cl)cc1)c1sc(=O)[nH]c1S2 (configuration not stated) | 7.5 µM |
| O=C1C2=C(C(=O)c3c(O)cccc31)C(c1cccs1)c1sc(=O)[nH]c1S2 (configuration not stated) | 24.1 µM |

tested on: HOP-62; assay: Anticancer activity against human HOP-62 cells assessed as cell growth at 10 uM incubated for 48 hrs by sulforhodamine B assay; type: functional; settings: read-out: Activity

| SMILES | growth at 10 µM |
| --- | --- |
| O=C1C2=C(C(=O)c3c(O)cccc31)C(c1cccs1)c1sc(=O)[nH]c1S2 (configuration not stated) | -94.3% |

tested on: HCT-116; assay: Cytotoxicity against human HCT-116 cells assessed as cell growth inhibition incubated for 72 hrs by MTT assay; type: functional, cell-based; settings: HCT-116, 72 h

| SMILES | IC50 |
| --- | --- |
| O=C1C2=C(C(=O)c3c(O)cccc31)C(c1ccc(Cl)cc1)c1sc(=O)[nH]c1S2 (configuration not stated) | 4.12 µM |
| O=C1C2=C(C(=O)c3c(O)cccc31)C(c1cccs1)c1sc(=O)[nH]c1S2 (configuration not stated) | 5.13 µM |

tested on: SNB-19; assay: Anticancer activity against human SNB-19 cells assessed as cell growth at 10 uM incubated for 48 hrs by sulforhodamine B assay; type: functional; settings: read-out: Activity

| SMILES | growth at 10 µM |
| --- | --- |
| O=C1C2=C(C(=O)c3c(O)cccc31)C(c1cccs1)c1sc(=O)[nH]c1S2 (configuration not stated) | -99.5% |

tested on: K562; assay: Cytotoxicity against human K562 cells assessed as cell growth inhibition incubated for 72 hrs by MTT assay; type: functional, cell-based; settings: K562, 72 h

| SMILES | IC50 |
| --- | --- |
| O=C1C2=C(C(=O)c3c(O)cccc31)C(c1ccc(Cl)cc1)c1sc(=O)[nH]c1S2 (configuration not stated) | 19.2 µM |
| O=C1C2=C(C(=O)c3c(O)cccc31)C(c1cccs1)c1sc(=O)[nH]c1S2 (configuration not stated) | 21.5 µM |

tested on: M14; assay: Anticancer activity against human M14 cells assessed as cell growth at 10 uM incubated for 48 hrs by sulforhodamine B assay; type: functional; settings: read-out: Activity

| SMILES | growth at 10 µM |
| --- | --- |
| O=C1C2=C(C(=O)c3c(O)cccc31)C(c1cccs1)c1sc(=O)[nH]c1S2 (configuration not stated) | -96.7% |

tested on: Salmon testes DNA; assay: Displacement of methyl green from salmon sperm DNA assessed as DNA intercalation at 10 uM incubated for 24 hrs by fluorescence plate reader method relative to control; type: nucleic-acid assay; settings: Salmo salar

| Activity | SMILES |
| --- | --- |
| 29.5% | O=C1C2=C(C(=O)c3c(O)cccc31)C(c1ccc(Cl)cc1)c1sc(=O)[nH]c1S2 (configuration not stated) |
| 66.4% | O=C1C2=C(C(=O)c3c(O)cccc31)C(c1cccs1)c1sc(=O)[nH]c1S2 (configuration not stated) |

tested on: SF-539; assay: Anticancer activity against human SF-539 cells assessed as cell growth at 10 uM incubated for 48 hrs by sulforhodamine B assay; type: functional; settings: read-out: Activity

| SMILES | growth at 10 µM |
| --- | --- |
| O=C1C2=C(C(=O)c3c(O)cccc31)C(c1ccc(Cl)cc1)c1sc(=O)[nH]c1S2 (configuration not stated) | 35.1% |
| O=C1C2=C(C(=O)c3c(O)cccc31)C(c1cccs1)c1sc(=O)[nH]c1S2 (configuration not stated) | -99.5% |

tested on: OVCAR-8; assay: Anticancer activity against human OVCAR-8 cells assessed as cell growth at 10 uM incubated for 48 hrs by sulforhodamine B assay; type: functional; settings: read-out: Activity

| SMILES | growth at 10 µM |
| --- | --- |
| O=C1C2=C(C(=O)c3c(O)cccc31)C(c1cccs1)c1sc(=O)[nH]c1S2 (configuration not stated) | -94.6% |

tested on: UO-31; assay: Anticancer activity against human UO-31 cells assessed as cell growth at 10 uM incubated for 48 hrs by sulforhodamine B assay; type: functional; settings: read-out: Activity

| SMILES | growth at 10 µM |
| --- | --- |
| O=C1C2=C(C(=O)c3c(O)cccc31)C(c1ccc(Cl)cc1)c1sc(=O)[nH]c1S2 (configuration not stated) | 39.8% |
| O=C1C2=C(C(=O)c3c(O)cccc31)C(c1cccs1)c1sc(=O)[nH]c1S2 (configuration not stated) | -92.9% |

tested on: BT-549; assay: Anticancer activity against human BT-549 cells assessed as cell growth at 10 uM incubated for 48 hrs by sulforhodamine B assay; type: functional; settings: read-out: Activity

| SMILES | growth at 10 µM |
| --- | --- |
| O=C1C2=C(C(=O)c3c(O)cccc31)C(c1ccc(Cl)cc1)c1sc(=O)[nH]c1S2 (configuration not stated) | 39.5% |
| O=C1C2=C(C(=O)c3c(O)cccc31)C(c1cccs1)c1sc(=O)[nH]c1S2 (configuration not stated) | -99.9% |

Reference: ChEMBL document CHEMBL5360558, “Molecular design, synthesis and anticancer activity of new thiopyrano[2,3-d]thiazoles based on 5-hydroxy-1,4-naphthoquinone (juglone)” (Eur J Med Chem, 2023)
